Paper PMC4583475, “Receptor Polymorphism and Genomic Structure Interact to Shape Bitter Taste Perception” (PLoS Genetics, 2015)
One block for each compound: values may come before it.

Experiments:
[1] = tested on: bitter taste perception of 48 Caucasian subjects; test: Human psychophysical bitter taste tests (4-AFC recognition thresholds, gLMS intensity ratings); type: in vivo; conditions: for recognition threshold, fold range across subjects: 48 human subjects
Experimental: All were pre-screened to avoid inclusion of individuals with health problems and overt taste pathologies; pregnant and breast-feeding women were also excluded. Each subject participated in the entire course of the study, which included one training session and nine experimental sessions. Visits consisted of DNA collection and psychophysical tests for genotyping and phenotypic analyses, respectively. General taste abilities were also assessed for the bitter, salty, sour, and sweet taste during the first session.
Experiments were conducted at the sensory analysis laboratory of the German Institute of Human Nutrition Potsdam-Rehbruecke, according to good practice guidelines. […] Perceived bitter taste intensities were rated on the general Labelled Magnitude Scale (gLMS; [72–74]). […] For each 4-AFC test, four coded samples containing 10 ml solution were presented simultaneously; one containing the bitter tastant diluted in mineral water (Evian; Danone, Paris, France) and three containing mineral water only. At each concentration, subjects were challenged to identify the different sample, specify whether the quoted sample tasted bitter, and rate the perceived bitter intensity. Tests were performed with nose clips and oral rinsing, with a 45 s pause between concentrations. Training sessions were first used to familiarize subjects with the experimental procedures, and secondly, to assess general taste abilities. Concentration series consisted of geometric sequences of […], with a 1.5 common ratio and the following concentration ranges: 3.5x10^-5–2.0x10^-3M, 6.9x10^-4–4.0x10^-2 M, 2.6x10^-4–1.5x10^-2 M, 6.9x10^-4–4.0x10^-2 M, for salicin, sodium chloride, citric acid, and sucrose used as reference tastants for bitter, salty, sour, and sweet taste, respectively. Following training, subjects tested each tastant in triplicate over nine sessions. Latin square designs extended for first-order carry-over effects were used to counterbalance presentation order of the test compounds over the test sessions, across subjects and for each test compound, as well as presentation order of the samples at each concentration across both repetitions and subjects. Sensory sessions were monitored and data automatically collected (Fizz; Biosystèmes, Couternon, France).
Detection and recognition probabilities of the bitter samples were analysed per repetition and subject. Relationships between probabilities (detection or recognition probabilities) and concentrations were fitted by a logistic regression model using the maximum-likelihood method. Threshold value and slope of the logistic curves were then obtained per repetition and subject, using a self-implemented toolbox (Matlab; The MathWorks Inc.). […] Where required, outliers were discarded according to the Peirce’s criterion. Perceived intensities, expressed in percentage of the scale length, were analysed similarly.

[2] = tested on: TAS2R30-H1; test: Calcium imaging in HEK 293T Gα16gust44 cells transfected with TAS2R30-H1; type: cell-based, human
Description: (§1) Allelic responses to agonists were quantified using in vitro heterologous expression assays designed in previous studies of TAS2R receptor function, which successfully mimic responses in vivo with respect to both magnitude and concentration range [17, 23, 25, 26, 46]. DNA fragments containing TAS2R coding sequences were first amplified from genomic DNA by PCR using a proofreading polymerase (PfuUltra II Fusion HotStart DNA Polymerase; Agilent Technologies, Santa Clara, CA, USA) and cloned into a plasmid vector according to the manufacturer’s protocol (Zero Blunt TOPO PCR Cloning Kit; Life Technologies). A second PCR was performed using specific cloning primers to facilitate subcloning into the expression vector, which was then modified to add an N-terminal signal for cell surface localisation and a C-terminal epitope for immunocytochemical detection to the receptor sequence (Fast Link DNA Ligation Kit; Epicentre, Illumina Inc., Madison, WI, USA) (pcDNA5/FRT Mammalian Expression Vector; Life Technologies). Empty vector was used as a negative control.
(§2) Functional assays were carried out in HEK 293T cells stably expressing the G protein chimera Gα16gust44 and transiently transfected with TAS2R alleles subcloned into the expression vector [78]. Calcium imaging was performed using an automated fluorometric imaging plate reader by exposing transfected cells to test compounds dissolved in assay buffer or to assay buffer alone (FLIPR Tetra; Molecular Devices, LLC, Sunnyvale, CA, USA). Changes in cytosolic calcium levels were monitored by measuring fluorescence intensity of a calcium-sensitive dye previously added (Fluo-4 AM; Life Technologies). Six replicates were carried out for each bitter stimulus, on separate experimental days, with each replicate consisting of concentration series of each bitter tastant.
(§3) Prior to final analysis, fluorescence data from functional assays, expressed in relative fluorescence units (RFU), underwent three corrections. First, a correction calculated from baseline values was applied to compensate for well-to-well fluctuations. A second correction calculated from negative control values was applied to correct for receptor independent artefacts and signal drift. A third correction calculated from positive control values was applied to facilitate comparison of data obtained from different experimental days. Fluorescence ratios ((F-F0)/F0), obtained by subtracting the background fluorescence from fluorescence peak height and then dividing the difference by the background fluorescence, were then used for data analysis. Variance analyses were performed, followed by Bonferroni multiple comparisons tests (SPSS 20; IBM Corporation, Armonk, NY, USA). Threshold response values were then defined as the first concentration eliciting a significant activation of the receptor, with empty vector acting as a negative control. Finally, dose-response curves were fitted to the Hill equation by nonlinear regression in order to determine half maximal effective concentrations (EC50) and maximal amplitude (SigmaPlot; Systat Software Inc., Chicago, IL, USA).

[3] = tested on: TAS2R30-H2; test: Calcium imaging in HEK 293T Gα16gust44 cells transfected with TAS2R30-H2; type: cell-based, human
Description: as §1, §2, §3

[4] = target: T1, TAS2R46-H1 (Homo sapiens, UniProt P59540); test: Calcium imaging in HEK 293T Gα16gust44 cells transfected with TAS2R46-H1; type: cell-based
T1 construct: N-terminal signal for cell surface localisation (N); expressed in transfected cells; host or cells: HEK 293T cells stably expressing the G protein chimera Gα16gust44
T1 sequence (P59540 1-309): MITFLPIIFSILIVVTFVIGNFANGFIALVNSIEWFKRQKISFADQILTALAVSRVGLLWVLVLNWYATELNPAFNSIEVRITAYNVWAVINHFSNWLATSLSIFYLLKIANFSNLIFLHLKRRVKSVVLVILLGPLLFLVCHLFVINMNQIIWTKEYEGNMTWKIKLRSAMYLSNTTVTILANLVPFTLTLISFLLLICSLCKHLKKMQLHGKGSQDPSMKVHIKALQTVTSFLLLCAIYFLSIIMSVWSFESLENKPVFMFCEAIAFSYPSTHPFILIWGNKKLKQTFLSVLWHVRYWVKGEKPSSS
Description: as §1, §2, §3

[5] = target: T2, TAS2R46-H2 (Homo sapiens, UniProt P59540); test: Calcium imaging in HEK 293T Gα16gust44 cells transfected with TAS2R46-H2; type: cell-based; conditions: TAS2R46-H2, truncated variant (premature stop codon)
T2 construct: TAS2R46-H2, a truncated, six-transmembrane variant of the receptor; N-terminal signal for cell surface localisation (N); expressed in transfected cells; host or cells: HEK 293T cells stably expressing the G protein chimera Gα16gust44
T2 sequence (P59540 1-249 limits assumed): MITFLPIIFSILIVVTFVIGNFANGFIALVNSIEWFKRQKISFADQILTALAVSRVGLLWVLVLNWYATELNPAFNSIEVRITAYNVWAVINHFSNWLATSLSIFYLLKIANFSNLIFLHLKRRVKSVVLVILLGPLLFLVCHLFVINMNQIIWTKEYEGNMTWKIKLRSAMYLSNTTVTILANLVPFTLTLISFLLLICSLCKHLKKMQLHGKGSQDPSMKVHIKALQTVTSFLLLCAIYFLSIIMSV
Description: as §1, §2, §3

[6] = tested on: TAS2R46-H3; test: Calcium imaging in HEK 293T Gα16gust44 cells transfected with TAS2R46-H3; type: cell-based, human
Description: as §1, §2, §3

[7] = tested on: TAS2R30, -31, -43, and -46; test: Calcium imaging functional assays, statements across TAS2R loci (variants not resolved); type: cell-based, human; conditions: TAS2R30 and -46 variants
Description: as §1
as §2, with “Six replicates were carried out for each bitter stimulus, on separate experimental days, with each replicate consisting of concentration series of each bitter tastant.” left out
Prior to final analysis, fluorescence data from functional assays, expressed in relative fluorescence units (RFU), underwent three corrections. First, a correction calculated from baseline values was applied to compensate for well-to-well fluctuations. A second correction calculated from negative control values was applied to correct for receptor independent artefacts and signal drift. […]

[8] = tested on: TAS2R31-H1; test: Calcium imaging in HEK 293T Gα16gust44 cells transfected with TAS2R31-H1; type: cell-based, human
Description: (§4) Allelic responses to agonists were quantified using in vitro heterologous expression assays designed in previous studies of TAS2R receptor function, which successfully mimic responses in vivo with respect to both magnitude and concentration range [17, 23, 25, 26, 46]. DNA fragments containing TAS2R coding sequences were first amplified from genomic DNA by PCR using a proofreading polymerase (PfuUltra II Fusion HotStart DNA Polymerase; Agilent Technologies, Santa Clara, CA, USA) and cloned into a plasmid vector according to the manufacturer’s protocol (Zero Blunt TOPO PCR Cloning Kit; Life Technologies). […]
as §2, with “Six replicates were carried out for each bitter stimulus, on separate experimental days, with each replicate consisting of concentration series of each bitter tastant.” left out
(§5) Prior to final analysis, fluorescence data from functional assays, expressed in relative fluorescence units (RFU), underwent three corrections. […]

[9] = tested on: TAS2R31-H2; test: Calcium imaging in HEK 293T Gα16gust44 cells transfected with TAS2R31-H2; type: cell-based, human
Description: as §4
as §2, with “Six replicates were carried out for each bitter stimulus, on separate experimental days, with each replicate consisting of concentration series of each bitter tastant.” left out
as §5

[10] = tested on: TAS2R31-H3; test: Calcium imaging in HEK 293T Gα16gust44 cells transfected with TAS2R31-H3; type: cell-based, human
Description: as §4
as §2, with “Six replicates were carried out for each bitter stimulus, on separate experimental days, with each replicate consisting of concentration series of each bitter tastant.” left out
as §5

[11] = tested on: TAS2R31-H4; test: Calcium imaging in HEK 293T Gα16gust44 cells transfected with TAS2R31-H4; type: cell-based, human
Description: as §4
as §2, with “Six replicates were carried out for each bitter stimulus, on separate experimental days, with each replicate consisting of concentration series of each bitter tastant.” left out
as §5

[12] = tested on: TAS2R43-H1; test: Calcium imaging in HEK 293T Gα16gust44 cells transfected with TAS2R43-H1; type: cell-based, human
Description: as §1, §2
as §3, with “Threshold response values were then defined as the first concentration eliciting a significant activation of the receptor, with empty vector acting as a negative control. Finally, dose-response curves were fitted to the Hill equation by nonlinear regression in order to determine half maximal effective concentrations (EC50) and maximal amplitude (SigmaPlot; Systat Software Inc., Chicago, IL, USA).” left out

[13] = tested on: TAS2R43-H2; test: Calcium imaging in HEK 293T Gα16gust44 cells transfected with TAS2R43-H2; type: cell-based, human
Description: as §1, §2
as §3, with “Threshold response values were then defined as the first concentration eliciting a significant activation of the receptor, with empty vector acting as a negative control. Finally, dose-response curves were fitted to the Hill equation by nonlinear regression in order to determine half maximal effective concentrations (EC50) and maximal amplitude (SigmaPlot; Systat Software Inc., Chicago, IL, USA).” left out

[14] = tested on: every known TAS2R in humans; set-up: method as in PMID 20022913; conditions: complete TAS2R family; cited from earlier work
[15] = first concentration eliciting significant receptor activation

receptor variant response [4]: sensitive | receptor variant response [5]: insensitive
SMILES: CC(=O)O[C@@H]1C[C@]2(C)[C@H](CC[C@@H](O)[C@]2(C)O)[C@@](C=O)(C[C@@H](O)c2ccoc2)[C@@H]1C [cascarillin]
recognition threshold, fold range across subjects [1]: 17 fold | concentration perceived as weakly bitter, fold range across subjects ([1]; gLMS weak intensity): 11 fold | receptor variant response [2]: sensitive | receptor variant response [3]: insensitive | receptor variant response [6]: intermediate | minimum concentration required to elicit response in functional assays [7]: 30 µM

SMILES: C=C[C@H]1C[N@@]2CC[C@H]1C[C@H]2[C@H](O)c1ccnc2ccc(OC)cc12 [quinine]
receptor variant response [8]: intermediates | receptor variant response [9]: sensitive | receptor variant response [10]: insensitive | receptor variant response [11]: intermediates

EC50 [12]: 16 µM | EC50 [13]: 6.9 µM | EC50 [4]: 5.6 µM | maximum amplitude [4]: 0.87 ΔF/F | threshold [4, 15]: 1000 nM | receptor variant response [5]: not activated at any concentration | EC50 [6]: 7.6 µM
SMILES: C=C1C(=O)O[C@H]2[C@H]1[C@@H](O)CC(=C)[C@@H]1CC(=O)[C@@H](C)[C@H]21 [grosheimin]
recognition threshold, fold range across subjects [1]: 25 fold | concentration perceived as strongly bitter, fold range across subjects ([1]; gLMS strong intensity): 5 fold | concentration perceived as strongly bitter, mode ([1]; gLMS strong intensity): 33 µM | concentration perceived as weakly bitter, fold range across subjects ([1]; gLMS weak intensity): 17 fold | concentration perceived as weakly bitter, mode ([1]; gLMS weak intensity): 15 µM | maximum amplitude [12]: 0.60 ΔF/F | threshold [12, 15]: 10 µM | maximum amplitude [13]: 0.81 ΔF/F | threshold [13, 15]: 3 µM | maximum amplitude [6]: 0.50 ΔF/F | threshold [6, 15]: 3 µM | TAS2Rs responsive in published receptor-agonist inventory [14]: only TAS2R43 and -46
